Laboratory results published in patent US6825172B2, “3-descladinosyl-6-O-carbamoyl and 6-O-carbonoyl macrolide antibacterial agents” (Janssen Pharmaceutica, NV, priority 2002, dated 2004).
In brackets after ≈: the same amount, converted by molar mass. Read-outs that look alike come from different tables or passages of the source.

Columns and labels:
Assay in all cases: MIC, microdilution broth method (NCCLS)
Assay type in all cases: cell-based
[1] = system: E. coli OC2605; details: Escherichia coli
Protocol: (§1) Minimal inhibitory concentration (MIC) has been an indicator of in vitro antibacterial activity widely used in the art. The in vitro antimicrobial activity of the compounds was determined by the microdilution broth method following the test method from the National Committee for Clinical Laboratory Standards (NCCLS). This method is described in the NCCLS Document M7-A4, Vol.17, No.2, “Methods for Dilution Antimicrobial Susceptibility Test for Bacteria that Grow Aerobically—Fourth Edition”, which is incorporated herein by reference.
(§2) In this method two-fold serial dilutions of drug in cation adjusted Mueller-Hinton broth are added to wells in microdilution trays. The test organisms are prepared by adjusting the turbidity of actively growing broth cultures so that the final concentration of test organism after it is added to the wells is approximately 5×10^4 CFU/well.
(§3) Following inoculation of the microdilution trays, the trays are incubated at 35 °C for 16-20 hours and then read. […] The amount of growth in the wells containing the test compound is compared with the amount of growth in the growth-control wells (no test compound) used in each tray. As set forth in Table 1, compounds of the present invention were tested against a variety of Gram positive and Gram negative pathogenic bacteria resulting in a range of activities depending on the organism tested.

[2] = system: S. pneumoniae ATCC49619; details: Streptococcus pneumoniae, read-out: MIC Values, D: S. pneumoniae ATCC49619
Protocol: as §1, §2, §3

[3] = system: S. aureus ATCC29213; details: Staphylococcus aureus, read-out: MIC Values, B: S. aureus ATCC29213
Protocol: as §1, §2, §3

[4] = system: H. influenzae ATCC49247; details: Haemophilus influenzae, read-out: MIC Values, E: H. influenzae ATCC49247
Protocol: as §1, §2, §3

[5] = system: E. faecalis ATCC29212; details: Enterococcus faecalis, read-out: MIC Values, C: E. faecalis ATCC29212
Protocol: as §1, §2, §3

[6] = Table 2, 3,6-Dicarbamoyl Macrolide Derivatives, read-out: MIC Values, A: E. coil OC2605
[7] = Table 2, 3,6-Dicarbamoyl Macrolide Derivatives
[8] = Table 1, 6-Carbamoyl-3-Acyl Macrolide Derivatives, read-out: MIC Values, A: E. coli OC2605
[9] = Table 1, 6-Carbamoyl-3-Acyl Macrolide Derivatives
[10] = Table 3, 6-Carbonate Macrolide Derivatives

MIC [1, 6] [µg/mL] | MIC [2, 7] [µg/mL] | MIC [3, 7] [µg/mL] | MIC [4, 7] [µg/mL] | MIC [5, 7] [µg/mL] | MIC [1, 8] [µg/mL] | MIC [2, 9] [µg/mL] | MIC [3, 9] [µg/mL] | MIC [4, 9] [µg/mL] | MIC [5, 9] [µg/mL] | MIC [2, 10] [µg/mL] | MIC [3, 10] [µg/mL] | MIC [5, 10] [µg/mL] | Structure (SMILES)
> 16 | 0.03 (≈ 0.0304 µM) | 0.25 (≈ 0.254 µM) | 2 (≈ 2.03 µM) | 0.25 (≈ 0.254 µM) |  |  |  |  |  |  |  |  | CC[C@H]1OC(=O)[C@H](C)[C@@H](OC(=O)N(C)Cc2cccnc2)[C@H](C)[C@@H](O[C@@H]2O[C@H](C)C[C@H](N(C)C)[C@H]2O)[C@](C)(OC(=O)NC/C=C/c2ccc(-c3ncccn3)cc2)C[C@@H](C)C(=O)[C@H](C)[C@H]2NC(=O)O[C@@]21C [Compound 58]
 |  |  |  |  | > 16 | 0.25 (≈ 0.248 µM) | 2 (≈ 1.98 µM) | 8 (≈ 7.93 µM) | 2 (≈ 1.98 µM) |  |  |  | CC[C@H]1OC(=O)[C@H](C)[C@@H](OC(=O)Cc2cn(C)c3ccccc23)[C@H](C)[C@@H](O[C@@H]2O[C@H](C)C[C@H](N(C)C)[C@H]2O)[C@](C)(OC(=O)NC/C=C/c2ccc(-c3ncccn3)cc2)C[C@@H](C)C(=O)[C@H](C)[C@H]2NC(=O)O[C@@]21C [Compound 11]
 |  |  |  |  | > 16 | 0.12 (≈ 0.13 µM) | 1 (≈ 1.08 µM) | 4 (≈ 4.33 µM) | 0.5 (≈ 0.542 µM) |  |  |  | CC[C@H]1OC(=O)[C@H](C)[C@@H](OC(=O)Cc2cccnc2)[C@H](C)[C@@H](O[C@@H]2O[C@H](C)C[C@H](N(C)C)[C@H]2O)[C@](C)(OC(=O)NC/C=C/c2cnc(C(C)C)nc2)C[C@@H](C)C(=O)[C@H](C)[C@H]2NC(=O)O[C@@]21C [Compound 41]
 |  |  |  |  | > 16 | 0.12 (≈ 0.139 µM) | 4 (≈ 4.62 µM) | 8 (≈ 9.25 µM) | 0.5 (≈ 0.578 µM) |  |  |  | CC[C@H]1OC(=O)[C@H](C)[C@@H](OC(=O)c2ccccc2)[C@H](C)[C@@H](O[C@@H]2O[C@H](C)C[C@H](N(C)C)[C@H]2O)[C@](C)(OC(=O)NC/C=C/c2cccnc2)C[C@@H](C)C(=O)[C@H](C)[C@H]2NC(=O)O[C@@]21C [Compound 18]
 |  |  |  |  | > 16 | 0.06 (≈ 0.0608 µM) | 1 (≈ 1.01 µM) | 8 (≈ 8.11 µM) | 0.5 (≈ 0.507 µM) |  |  |  | CC[C@H]1OC(=O)[C@H](C)[C@@H](OC(=O)COCc2ccccc2)[C@H](C)[C@@H](O[C@@H]2O[C@H](C)C[C@H](N(C)C)[C@H]2O)[C@](C)(OC(=O)NC/C=C/c2ccc(-c3ncccn3)cc2)C[C@@H](C)C(=O)[C@H](C)[C@H]2NC(=O)O[C@@]21C [Compound 16]
> 16 | 0.06 (≈ 0.0631 µM) | 0.5 (≈ 0.526 µM) | 4 (≈ 4.21 µM) | 0.5 (≈ 0.526 µM) |  |  |  |  |  |  |  |  | CC[C@H]1OC(=O)[C@H](C)[C@@H](OC(=O)N2CCOCC2)[C@H](C)[C@@H](O[C@@H]2O[C@H](C)C[C@H](N(C)C)[C@H]2O)[C@](C)(OC(=O)NC/C=C/c2ccc(-c3ncccn3)cc2)C[C@@H](C)C(=O)[C@H](C)[C@H]2NC(=O)O[C@@]21C [Compound 63]
> 16 | 0.25 (≈ 0.248 µM) | 2 (≈ 1.99 µM) | > 16 | 1 (≈ 0.993 µM) |  |  |  |  |  |  |  |  | CC[C@H]1OC(=O)[C@H](C)[C@@H](OC(=O)Nc2ccc3ccccc3c2)[C@H](C)[C@@H](O[C@@H]2O[C@H](C)C[C@H](N(C)C)[C@H]2O)[C@](C)(OC(=O)NC/C=C/c2ccc(-c3ncccn3)cc2)C[C@@H](C)C(=O)[C@H](C)[C@H]2NC(=O)O[C@@]21C [Compound 53]
 |  |  |  |  | 8 (≈ 8.6 µM) | 0.03 (≈ 0.0323 µM) | 0.5 (≈ 0.538 µM) | 2 (≈ 2.15 µM) | 0.25 (≈ 0.269 µM) |  |  |  | CC[C@H]1OC(=O)[C@H](C)[C@@H](OC(=O)Cc2ccccn2)[C@H](C)[C@@H](O[C@@H]2O[C@H](C)C[C@H](N(C)C)[C@H]2O)[C@](C)(OC(=O)NC/C=C/c2cnc3ccccc3c2)C[C@@H](C)C(=O)[C@H](C)[C@H]2NC(=O)O[C@@]21C [Compound 32]
 |  |  |  |  | 16 (≈ 17.7 µM) | 0.03 (≈ 0.0331 µM) | 1 (≈ 1.1 µM) | 4 (≈ 4.41 µM) | 0.25 (≈ 0.276 µM) |  |  |  | CC[C@H]1OC(=O)[C@H](C)[C@@H](OC(=O)Cc2cccnc2)[C@H](C)[C@@H](O[C@@H]2O[C@H](C)C[C@H](N(C)C)[C@H]2O)[C@](C)(OC(=O)NC/C=C/C=C/c2cccnc2)C[C@@H](C)C(=O)[C@H](C)[C@H]2NC(=O)O[C@@]21C [Compound 23]
 |  |  |  |  | 16 (≈ 18.2 µM) | 0.06 (≈ 0.0682 µM) | 1 (≈ 1.14 µM) | 1 (≈ 1.14 µM) | 0.25 (≈ 0.284 µM) |  |  |  | CC[C@H]1OC(=O)[C@H](C)[C@@H](OC(=O)Cc2cccnc2)[C@H](C)[C@@H](O[C@@H]2O[C@H](C)C[C@H](N(C)C)[C@H]2O)[C@](C)(OC(=O)NC/C=C/c2cccnc2)C[C@@H](C)C(=O)[C@H](C)[C@H]2NC(=O)O[C@@]21C [Compound 19]
> 16 | 0.25 (≈ 0.262 µM) | 4 (≈ 4.2 µM) | 16 (≈ 16.8 µM) | 2 (≈ 2.1 µM) |  |  |  |  |  |  |  |  | CC[C@H]1OC(=O)[C@H](C)[C@@H](OC(=O)N(CC)CCO)[C@H](C)[C@@H](O[C@@H]2O[C@H](C)C[C@H](N(C)C)[C@H]2O)[C@](C)(OC(=O)NC/C=C/c2ccc(-c3ncccn3)cc2)C[C@@H](C)C(=O)[C@H](C)[C@H]2NC(=O)O[C@@]21C [Compound 66]
> 16 | 0.06 (≈ 0.06 µM) | 1 (≈ 1 µM) | 8 (≈ 8 µM) | 0.5 (≈ 0.5 µM) |  |  |  |  |  |  |  |  | CC[C@H]1OC(=O)[C@H](C)[C@@H](OC(=O)N(CC)Cc2cccnc2)[C@H](C)[C@@H](O[C@@H]2O[C@H](C)C[C@H](N(C)C)[C@H]2O)[C@](C)(OC(=O)NC/C=C/c2ccc(-c3ncccn3)cc2)C[C@@H](C)C(=O)[C@H](C)[C@H]2NC(=O)O[C@@]21C [Compound 61]
 |  |  |  |  | > 16 | 0.06 (≈ 0.0682 µM) | 1 (≈ 1.14 µM) | 8 (≈ 9.09 µM) | 0.25 (≈ 0.284 µM) |  |  |  | CC[C@H]1OC(=O)[C@H](C)[C@@H](OC(C)=O)[C@H](C)[C@@H](O[C@@H]2O[C@H](C)C[C@H](N(C)C)[C@H]2O)[C@](C)(OC(=O)NC/C=C/c2ccc(-c3ncccn3)cc2)C[C@@H](C)C(=O)[C@H](C)[C@H]2NC(=O)O[C@@]21C [Compound 12]
> 16 | 0.12 (≈ 0.123 µM) | 1 (≈ 1.03 µM) | 4 (≈ 4.1 µM) | 1 (≈ 1.03 µM) |  |  |  |  |  |  |  |  | CC[C@H]1OC(=O)[C@H](C)[C@@H](OC(=O)Nc2ccc(F)cc2)[C@H](C)[C@@H](O[C@@H]2O[C@H](C)C[C@H](N(C)C)[C@H]2O)[C@](C)(OC(=O)NC/C=C/c2ccc(-c3ncccn3)cc2)C[C@@H](C)C(=O)[C@H](C)[C@H]2NC(=O)O[C@@]21C [Compound 52]
 |  |  |  |  | 8 (≈ 8.83 µM) | 0.03 (≈ 0.0331 µM) | 0.5 (≈ 0.552 µM) | 1 (≈ 1.1 µM) | 0.25 (≈ 0.276 µM) |  |  |  | CC[C@H]1OC(=O)[C@H](C)[C@@H](OC(=O)Cc2cccnc2)[C@H](C)[C@@H](O[C@@H]2O[C@H](C)C[C@H](N(C)C)[C@H]2O)[C@](C)(OC(=O)NC/C=C/C=C/c2ccccn2)C[C@@H](C)C(=O)[C@H](C)[C@H]2NC(=O)O[C@@]21C [Compound 27]
 |  |  |  |  | > 16 | 0.12 (≈ 0.122 µM) | 2 (≈ 2.03 µM) | 8 (≈ 8.1 µM) | 1 (≈ 1.01 µM) |  |  |  | CC[C@H]1OC(=O)[C@H](C)[C@@H](OC(=O)c2ccc([N+](=O)[O-])cc2)[C@H](C)[C@@H](O[C@@H]2O[C@H](C)C[C@H](N(C)C)[C@H]2O)[C@](C)(OC(=O)NC/C=C/c2ccc(-c3ncccn3)cc2)C[C@@H](C)C(=O)[C@H](C)[C@H]2NC(=O)O[C@@]21C [Compound 10]
 |  |  |  |  | 16 (≈ 16.7 µM) |  | 0.5 (≈ 0.522 µM) | 1 (≈ 1.04 µM) | 0.25 (≈ 0.261 µM) |  |  |  | CC[C@H]1OC(=O)[C@H](C)[C@@H](OC(=O)Cc2ccccn2)[C@H](C)[C@@H](O[C@@H]2O[C@H](C)C[C@H](N(C)C)[C@H]2O)[C@](C)(OC(=O)NC/C=C/c2ccc(-c3ncccn3)cc2)C[C@@H](C)C(=O)[C@H](C)[C@H]2NC(=O)O[C@@]21C [Compound 2]
 |  |  |  |  |  |  |  |  |  | 0.06 (≈ 0.0626 µM) | 1 (≈ 1.04 µM) | 0.5 (≈ 0.522 µM) | CC[C@H]1OC(=O)[C@H](C)[C@@H](OC(=O)Cc2cccnc2)[C@H](C)[C@@H](O[C@@H]2O[C@H](C)C[C@H](N(C)C)[C@H]2O)[C@](C)(OC(=O)OC/C=C/c2ccc(-c3cccnn3)cc2)C[C@@H](C)C(=O)[C@H](C)[C@H]2NC(=O)O[C@@]21C [Compound 79, 3-Pyridineacetic acid, (3aS,4R,7R,8S,9S,10R,11R,13R,15R,15aR)-4-ethyltetradecahydro-3a,7,9,11,13,15-hexamethyl-2,6,14-trioxo-11-[[[[(2E)-3-[4-(3-pyridazinyl)phenyl]-2-propenyl]oxy]carbonyl]oxy]-10-[[3,4,6-trideoxy-3-(dimethylamino)-β-D-xylo-hexopyranosyl]oxy]-2H-oxacyclotetradecino[4,3-d]oxazol-8-yl ester]
